From patent US4698352A, “4-oxo-1,4-dihydronicotinic acid derivatives, salts thereof, and antibacterial agents containing the same” (Toyama Chemical Co., Ltd., priority 1982, dated 1987)
Converted amounts (≈) assume the structure as drawn. Read-outs that look alike come from different tables or passages of the source.

Legend:
Test in all cases: Antibacterial activity (MIC), agar dilution
Type in all cases: cell-based
[1] = system: E. coli NIHJ JC-2; details: Escherichia coli, NIHJJC2, 20 h
Text: (§1) The amount of bacteria inoculated was 10^4 cells per plate (10^6 cells per ml).

[2] = system: Ps. aeruginosa IFO3445; details: Pseudomonas aeruginosa; Ps. aeruginosa IFO3445; 10^6 cells per ml; 37° C., 20 hours; read-out: MIC
Text: as §1

[3] = system: Kl. pneumoniae Y-41; details: Klebsiella pneumoniae, Y41, 10^6 cells per ml, 37° C., 20 hours, read-out: MIC
Text: as §1

[4] = system: Pro. vulgaris GN3027; details: Proteus vulgaris, GN3027, 20 h, Pro. vulgaris GN3027; 10^6 cells per ml; 37° C., 20 hours; read-out: MIC
Text: as §1

[5] = system: St. aureus FDA209P; details: Staphylococcus aureus, FDA209P, 20 h, St. aureus FDA209P; 10^6 cells per ml; 37° C., 20 hours; read-out: MIC
Text: as §1

[6] = system: Pro. mirabilis T-111; details: Proteus mirabilis, 37° C.
Text: as §1

[7] = system: E. coli TK-111; details: Escherichia coli, TK111, 20 h
Text: as §1

[8] = system: Pro. morganii T-216; details: Morganella morganii, T216, 10^6 cells per ml, 37° C., 20 hours, read-out: MIC
Text: as §1

[9] = system: Aci. antitratus A-6; details: 20 h, Aci. antitratus A-6; 10^6 cells per ml; 37° C., 20 hours; read-out: MIC
Text: as §1

[10] = system: Ps. aeruginosa S-68; details: Pseudomonas aeruginosa
Text: as §1

[11] = system: Kl. pneumoniae Y-50; details: Klebsiella pneumoniae, Y50, 20 h, 10^6 cells per ml, 37° C., read-out: MIC
Text: as §1

[12] = system: Ent. cloacae IID977; details: Enterobacter cloacae, IID977, 20 h, Ent. cloacae IID977; 10^6 cells per ml; 37° C., 20 hours; read-out: MIC
Text: as §1

[13] = system: Kl. pneumoniae Y-4*; details: Klebsiella pneumoniae, 20 h, Kl. pneumoniae Y-4, penicillinase-producing; 10^6 cells per ml; read-out: MIC
Text: as §1
(§2) * Penicillinase-producing bacteria

[14] = system: Ps. aeruginosa GN3379*; details: Pseudomonas aeruginosa, Ps. aeruginosa GN3379, penicillinase-producing, 10^6 cells per ml
Text: as §1, §2

[15] = system: St. aureus F-137*; details: Staphylococcus aureus, 20 h
Text: as §1, §2

[16] = system: E. coli TK-3*; details: Escherichia coli, 20 h, E. coli TK-3, penicillinase-producing; 10^6 cells per ml; read-out: MIC
Text: as §1, §2

[17] = system: Ps. aeruginosa GN918**; details: Pseudomonas aeruginosa, 20 h; Ps. aeruginosa GN918, cephalospolinase-producing; 10^6 cells per ml; read-out: MIC
Text: as §1
(§3) ** Cephalospolinase-producing bacteria

[18] = system: E. coli GN5482**; details: Escherichia coli, 20 h; E. coli GN5482, cephalospolinase-producing; 10^6 cells per ml; read-out: MIC
Text: as §1, §3

[19] = system: Pro. vulgaris GN76**; details: Proteus vulgaris
Text: as §1, §3

[20] = E. coli NIHJ JC-2, 10^6 cells per ml, 37° C., 20 hours, read-out: MIC
[21] = T111, 10^6 cells per ml, 20 hours, read-out: MIC
[22] = E. coli TK-111, 10^6 cells per ml, 37° C., 20 hours, read-out: MIC
[23] = St. aureus F-137, penicillinase-producing, 10^6 cells per ml, read-out: MIC

SMILES	MIC [1, 20]	MIC [2]	MIC [3]	MIC [4]	MIC [5]	MIC [6, 21]	MIC [8]	MIC [9]	MIC ([10]; S68, 20 h)	MIC [11]	MIC [12]	MIC [13]	MIC ([14]; 20 h, read-out: MIC)	MIC [16]	MIC [17]	MIC [18]	MIC ([19]; GN76, 20 h)	MIC [7, 22]	MIC [15, 23]	also measured
CC=Cc1cc(=O)c(C(=O)O)cn1-c1ccc(O)cc1C	3.13 µg/mL (≈ 11 µM)	25 µg/mL (≈ 87.6 µM)	12.5 µg/mL (≈ 43.8 µM)	0.39 µg/mL (≈ 1.37 µM)	6.25 µg/mL (≈ 21.9 µM)	25 µg/mL (≈ 87.6 µM)	3.13 µg/mL (≈ 11 µM)	6.25 µg/mL (≈ 21.9 µM)	12.5 µg/mL (≈ 43.8 µM)	1.56 µg/mL (≈ 5.47 µM)	6.25 µg/mL (≈ 21.9 µM)	25 µg/mL (≈ 87.6 µM)	25 µg/mL (≈ 87.6 µM)	3.13 µg/mL (≈ 11 µM)	6.25 µg/mL (≈ 21.9 µM)	0.39 µg/mL (≈ 1.37 µM)	1.56 µg/mL (≈ 5.47 µM)	–	–	MIC [7]: 1.56 µg/mL (≈ 5.47 µM); MIC [15]: 12.5 µg/mL (≈ 43.8 µM)
Cc1cc(O)ccc1-n1cc(C(=O)O)c(=O)cc1CCc1ccccc1	3.13 µg/mL (≈ 8.96 µM)	25 µg/mL (≈ 71.6 µM)	12.5 µg/mL (≈ 35.8 µM)	0.1 µg/mL (≈ 0.286 µM)	0.78 µg/mL (≈ 2.23 µM)	–	3.13 µg/mL (≈ 8.96 µM)	0.39 µg/mL (≈ 1.12 µM)	12.5 µg/mL (≈ 35.8 µM)	1.56 µg/mL (≈ 4.46 µM)	6.25 µg/mL (≈ 17.9 µM)	12.5 µg/mL (≈ 35.8 µM)	–	3.13 µg/mL (≈ 8.96 µM)	3.13 µg/mL (≈ 8.96 µM)	0.2 µg/mL (≈ 0.572 µM)	1.56 µg/mL (≈ 4.46 µM)	0.39 µg/mL (≈ 1.12 µM)	0.78 µg/mL (≈ 2.23 µM)	MIC ([6]; T111, 20 h, 10^6 cells per ml): 12.5 µg/mL (≈ 35.8 µM); MIC ([14]; GN3379, 20 h): 12.5 µg/mL (≈ 35.8 µM)
CC(=O)Oc1ccc(-n2cc(C(=O)OCC(O)CO)c(=O)cc2-c2ccc(N(C)C)cc2)cc1 (stereo not drawn)	–	50 µg/mL (≈ 107 µM)	25 µg/mL (≈ 53.6 µM)	0.78 µg/mL (≈ 1.67 µM)	1.56 µg/mL (≈ 3.34 µM)	25 µg/mL (≈ 53.6 µM)	12.5 µg/mL (≈ 26.8 µM)	1.56 µg/mL (≈ 3.34 µM)	–	3.13 µg/mL (≈ 6.71 µM)	6.25 µg/mL (≈ 13.4 µM)	25 µg/mL (≈ 53.6 µM)	50 µg/mL (≈ 107 µM)	6.25 µg/mL (≈ 13.4 µM)	12.5 µg/mL (≈ 26.8 µM)	0.1 µg/mL (≈ 0.214 µM)	–	0.78 µg/mL (≈ 1.67 µM)	1.56 µg/mL (≈ 3.34 µM)	MIC [1]: 3.13 µg/mL (≈ 6.71 µM); MIC ([10]; S68, Ps. aeruginosa S-68, 10^6 cells per ml, 37° C., 20 hours, read-out: MIC): 25 µg/mL (≈ 53.6 µM); MIC ([19]; 20 h, Pro. vulgaris GN76, cephalospolinase-producing, 10^6 cells per ml, read-out: MIC): 6.25 µg/mL (≈ 13.4 µM)
